Experimental data reported in patent publication US7906137B2, “Delivery agents for enhancing mucosal absorption of therapeutic agents” (Mediplex Corporation, Korea, priority 2004, dated 2011).

Molecular target: insulin (Homo sapiens, UniProt P01308)
Assay: Dissociation of high order protein aggregates by circular dichroism
Type: physicochemical
Conditions: 0.18 mM insulin, 0.18-37 mM MP-DCK, CD 300 to 250 nm, room temperature (FIG. 5)
Protocol: A circular dichroism spectropolarimeter (Jasco J-715, Tokyo, Japan) was used to measure the effect of a delivery carrier on the aggregation state of insulin. Solutions containing 0.18 mM insulin and different concentration of MP-DCK (0.18-37 mM) were scanned from 300 to 250 nm at room temperature at a scanning speed of 50 nm/min using a cuvette with a pathlength of 0.1 cm. The results of the test are illustrated in FIG. 5.

Sequence of insulin (P01308 25-54 limits assumed): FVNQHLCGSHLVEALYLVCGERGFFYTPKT
Sequence of insulin (P01308 90-110 limits assumed): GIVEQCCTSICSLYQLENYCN

COC(=O)[C@H](CCCCN)NC(=O)CC[C@@H](C)[C@H]1CC[C@H]2[C@@H]3CC[C@@H]4C[C@H](O)CC[C@]4(C)[C@H]3C[C@H](O)[C@]12C [DCK, N^α-deoxychoyl-L-lysine-methylester]
aggregation state of insulin: decrease the aggregation state of the insulin
